The record followed here is patent publication US11162959B2, “Time-resolved fluorescent immunochromatographic test strip for detecting vancomycin as well as preparation method and application thereof” (BEIJING DIAGREAT BIOTECHNOLOGIES CO., LTD., priority 2019, dated 2021).

The first test deals with vancomycin monoclonal antibody. Description: Cross-reaction rate measurement of the test strip of Embodiment 1 (interference testing in human serum containing 20 μg/mL vancomycin). The class given is binding, Balb/c mouse. As to conditions: test concentration 20 μg/mL; human serum sample. As to the method: 20 ul of sample is accurately pipetted into 180 ul of sample diluent and mixed fully.
80 uL of sample solution to be tested is accurately pipetted into a test strip loading well with a micropipette, and reaction is carried out at 20° C. for 15 min. The test strip is inserted into a load carrier of a fluorescence detector, an item to be tested is selected by touching a display screen, a “Detection Start” button is pressed, the fluorescence detector automatically scans the test strip, and a test result is read through the display screen of an instrument or printed.
After the test is completed, the instrument obtains the ratio of the time-resolved fluorescent intensity of the detection area on the test strip to the time-resolved fluorescent intensity of the quality control area, and calculates the content of vancomycin in the sample to be tested according to the following formula. Y=(A−D)/[1+(x/C)^B]+D
Several vancomycin analogs and common drugs are selected for interference testing.
Turning to `CN[C@H](CC(C)C)C(=O)N[C@H]1C(=O)N[C@@H](CC(N)=O)C(=O)N[C@H]2C(=O)N[C@H]3C(=O)N[C@H](C(=O)N[C@H](C(=O)O)c4cc(O)cc(O)c4-c4cc3ccc4O)[C@H](O)c3ccc(c(Cl)c3)Oc3cc2cc(c3O[C@@H]2OC(CO)[C@@H](O)[C@H](O)[C@H]2O[C@H]2C[C@](C)(N)[C@H](O)[C@H](C)O2)Oc2ccc(cc2Cl)[C@H]1O.Cl` (stereo partly drawn) [Vancomycin], the Cross reaction rate is given as 100%.

Staying with this test, now noted: test concentration 100 μg/mL; added to human serum with vancomycin 20 μg/mL.
On to `CC(C)C[C@@H](N)C(=O)N[C@H]1C(=O)N[C@@H](CC(N)=O)C(=O)N[C@H]2C(=O)N[C@H]3C(=O)N[C@H](C(=O)N[C@H](C(=O)O)c4cc(O)cc(O)c4-c4cc3ccc4O)[C@H](O)c3ccc(c(Cl)c3)Oc3cc2cc(c3O[C@@H]2O[C@H](CO)[C@@H](O)[C@H](O)[C@H]2O[C@H]2C[C@](C)(N)[C@H](O)[C@H](C)O2)Oc2ccc(cc2Cl)[C@H]1O` [Norvancomycin], for which the Cross reaction rate is under 1%.

The same test, now with this note: test concentration 1,000 μg/mL; added to human serum with vancomycin 20 μg/mL.
Take `CC(=O)Oc1ccccc1C(=O)O` [Aspirin]: the Cross reaction rate is under 0.001%.

With `NC(=O)N1c2ccccc2C=Cc2ccccc21` [Carbamazepine], the Cross reaction rate is given as under 0.001%. Consider `C[C@H]1O[C@@H](O[C@H]2[C@@H](O)C[C@H](O[C@H]3[C@@H](O)C[C@H](O[C@H]4CC[C@@]5(C)[C@H](CC[C@@H]6[C@@H]5C[C@@H](O)[C@]5(C)[C@@H](C7=CC(=O)OC7)CC[C@]65O)C4)O[C@@H]3C)O[C@@H]2C)C[C@H](O)[C@@H]1O` [Digoxin], for which the Cross reaction rate is under 0.001%. Turning to `O=C1NC(=O)C(c2ccccc2)(c2ccccc2)N1` [Phenytoin], the Cross reaction rate is on record as under 0.001%. Regarding `O=C(O)c1ccccc1O` [Salicylic acid], the Cross reaction rate is under 0.001%. `Cn1c(=O)c2[nH]cnc2n(C)c1=O` [Theophylline]: the Cross reaction rate is reported as under 0.001%.

Regarding `CCCC(CCC)C(=O)O` [Valproic acid], the Cross reaction rate is under 0.001%.
